pEC50: −log10 of the molar value. Like-named read-outs stand apart in the source and are kept apart here.
Test system: Dengue-2 (Strain New Guinea C)
Experiment: Viral yield assay against Dengue-2 in Vero cells
Format: cell-based, Dengue virus
Settings: Dengue virus; for pEC50: read-out: Activity (EC50 class) against Dengue-2 Virus in Vero cells; for EC50: read-out: Activity (EC50 in μM) DENV-2
In short: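 Virus yield, titered on Vero cells from cultures harvested at 48 h post infection, gave the EC50. Cultures were infected at MOI 0.1 with dengue-2 and treated with compound or DMSO at 37° C. DENV-1 and DENV-4 were determined similarly.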

[1] = Vero cells, MOI 0.1, harvested 48 hours post infection
[2] = DENV2, viral yield assay, Vero cells, MOI 0.1, 48 hours post infection

SMILES	pEC50 [1]	EC50 [2]	other results
CN1CCc2nc3sc(C(=O)Nc4ccc(C(C)(C)C)cc4)c(N)c3cc2C1 [Compound 35, 3-Amino-6-methyl-5,6,7,8-tetrahydro-thieno[2,3-b][1,6]naphthyridine-2-carboxylic acid (4-tert-butyl-phenyl)-amide]	> 5.30	–	–
Cc1cccc(NC(=O)c2sc3nc4c(cc3c2N)CCCCC4)c1 [Compound 117, 3-Amino-6,7,8,9-tetrahydro-5H-1-thia-10-aza-cyclohepta[f]indene-2-carboxylic acid m-tolylamide]	< 4.60	–	–
Cc1ccccc1NC(=O)c1sc2nc3c(c(-c4ccco4)c2c1N)CCCC3 [Compound 218, 3-Amino-4-furan-2-yl-5,6,7,8-tetrahydro-thieno[2,3-b]quinoline-2-carboxylic acid o-tolylamide]	–	–	pEC50 (Vero, 48 h): < 4.60
O=C(Nc1ccc(OC(F)(F)F)cc1)c1sc2ncccc2c1OCc1ccc(Cl)c(Cl)c1 [Compound 378, 3-[(3,4-dichlorophenyl)methoxy]-N-[4-(trifluoromethoxy)phenyl]thieno[2,3-b] pyridine-2-carboxamide]	–	< 5 µM	–
COc1cccc(-c2ccc3c(N)c(C(=O)Nc4ccc(C)c(F)c4)sc3n2)c1 [Compound 523, 3-amino-N-(3-fluoro-4-methyl-phenyl)-6-(3-methoxyphenyl)thieno[2,3-b] pyridine-2-carboxamide]	–	< 5 µM	–
Nc1c(C(=O)Nc2ccccc2OC(F)(F)F)sc2nc3c(cc12)CCCCC3 [Compound 371, 3-amino-N-(2-(trifluoromethoxy)phenyl)-6,7,8,9-tetrahydro-5H-cyclohepta[b]thieno [3,2-e]pyridine-2-carboxamide]	–	< 5 µM	–
COc1cccc(-c2ccc3c(N)c(C(=O)Nc4ccccc4C)sc3n2)c1 [Compound 521, 3-amino-6-(3-methoxyphenyl)-N-(o-tolyl)thieno[2,3-b]pyridine-2-carboxamide]	–	< 5 µM	–
Cc1ccc(NC(=O)c2sc3nc4c(cc3c2N)CCCCC4)cc1 [Compound 175, 3-Amino-6,7,8,9-tetrahydro-5H-1-thia-10-aza-cyclohepta[f]indene-2-carboxylic acid p-tolylamide]	< 4.60	–	–
CN1CCc2nc3sc(C(=O)Nc4ccc(F)cc4)c(N)c3cc2C1 [Compound 29, 3-Amino-6-methyl-5,6,7,8-tetrahydro-thieno[2,3-b][1,6]naphthyridine-2-carboxylic acid (4-fluoro-phenyl)-amide]	> 5.30	–	–
COc1ccc(Cl)cc1NC(=O)c1sc2nc(-c3ccc4c(c3)OCO4)ccc2c1N [Compound 594, 3-amio-6-(1,3-benzodioxol-5-yl)-N-(5-chloro-2-methoxy-phenyl)thieno[2,3-b] pyridine-2-carboxamide]	–	< 5 µM	–
N#Cc1c(N)nc2sc(C(=O)Nc3ccc(Br)cc3)c(N)c2c1-c1ccco1 [Compound 6, 3,6-Diamino-5-cyano-4-furan-2-yl-thieno[2,3-b]pyridine-2-carboxylic acid (4-bromo-phenyl)-amide]	> 5.30	–	–
COc1cccc(-c2ccc3c(N)c(C(=O)Nc4cc(C(F)(F)F)ccc4OC)sc3n2)c1 [Compound 558, 3-amino-6-(3-methoxyphenyl)-N-[2-methoxy-5-(trifluoromethyl)phenyl] thieno[2,3-b]pyridine-2-carboxamide]	–	< 5 µM	–
COCc1cc(C)nc2sc(C(=O)NCc3ccco3)c(N)c12 [Compound 209, 3-Amino-4-methoxymethyl-6-methyl-thieno[2,3-b]pyridine-2-carboxylic acid (furan-2-ylmethyl)-amide]	< 4.60	–	–
Nc1c(C(=O)NC2CCCCC2)sc2nc3c(cc12)CCCCC3 [Compound 281, 3-amino-N-cyclohexyl-6,7,8,9-tetrahydro-5H-cyclohepta[b]thieno [3,2-e]pyridine-2-carboxamide]	–	5 to 25 µM	–
Cc1ccc(-c2c3c(nc4sc(C(N)=O)c(N)c24)CCCCC3)cc1 [Compound 220, 3-Amino-4-p-tolyl-6,7,8,9-tetrahydro-5H-1-thia-10-aza-cyclohepta[f]indene-2-carboxylic acid amide]	< 4.60	–	–
CCN1CCCC(NC(=O)c2sc3nc(C)cc(COC)c3c2N)C1 (stereo not shown) [Compound 147, 3-Amino-4-methoxymethyl-6-methyl-thieno[2,3-b]pyridine-2-carboxylic acid (1-ethyl-piperidin-3-yl)-amide]	< 4.60	–	–
Cc1cc(C)c2c(C)c(C(=O)Nc3ccc4c(c3)OCCO4)sc2n1 [Compound 396, N-(2,3-dihydro-1,4-benzodioxin-6-yl)-3,4,6-trimethyl-thieno[2,3-b]pyridine-2-carboxamide]	–	5 to 25 µM	–
COc1ccnc2sc(C(=O)Nc3nnc(-c4ccccc4)s3)c(N)c12 [Compound 287, 3-amino-4-methoxy-N-(5-phenyl-1,3,4-thiadiazol-2-yl)thieno[2,3-b]pyridine-2-carboxamide]	–	5 to 25 µM	–
CCc1nnc(NC(=O)c2sc3nc(C)cc(C(F)(F)F)c3c2N)s1 [Compound 65, 3-Amino-6-methyl-4-trifluoromethyl-thieno[2,3-b]pyridine-2-carboxylic acid (5-ethyl-[1,3,4]thiadiazol-2-yl)-amide]	4.60 to 5.30	–	–
Cc1ccccc1NC(=O)c1sc2nc(-c3cccs3)ccc2c1N [Compound 477, 3-amino-N-(o-tolyl)-6-(2-thienyl)thieno [2,3-b]pyridine-2-carboxamide]	–	–	EC50 (DENV2, Vero, 48 h): < 5 µM
CN1CCc2nc3sc(C(=O)Nc4cccc(Cl)c4)c(N)c3cc2C1 [Compound 18, 3-Amino-6-methyl-5,6,7,8-tetrahydro-thieno[2,3-b][1,6]naphthyridine-2-carboxylic acid (3-chloro-phenyl)-amide]	> 5.30	–	–
COc1ccc(-c2ccc3c(N)c(C(=O)Nc4ccc(Br)cc4)sc3n2)cc1OC [Compound 451, 3-amino-N-(4-bromophenyl)-6-(3,4-dimethoxyphenyl)thieno[2,3-b]pyridine-2-carboxamide]	–	< 5 µM	–
COc1cccc(NC(=O)c2sc3nc(-c4cccc(OC)c4)ccc3c2N)c1 [Compound 503, 3-amino-N,6-bis(3-methoxyphenyl) thieno[2,3-b]pyridine-2-carboxamide]	–	< 5 µM	–
CN1CCc2nc3sc(C(=O)Nc4nncs4)c(N)c3cc2C1 [Compound 278, 3-Amino-6-methyl-5,6,7,8-tetrahydro-thieno[2,3-b][1,6]naphthyridine-2-carboxylic acid [1,3,4]thiadiazol-2-ylamide]	< 4.60	–	–
CCc1nnc(NC(=O)c2sc3nc(-c4cccs4)cc(C(F)(F)F)c3c2N)s1 [Compound 90, 3-Amino-6-thiophen-2-yl-4-trifluoromethyl-thieno[2,3-b]pyridine-2-carboxylic acid (5-ethyl-[1,3,4]thiadiazol-2-yl)-amide]	–	–	pEC50 (Vero, 48 h): 4.60 to 5.30
COc1ccc(C)cc1NC(=O)c1sc2nc(C)cc(C)c2c1N [Compound 259, 3-Amino-4,6-dimethyl-thieno[2,3-b]pyridine-2-carboxylic acid (2-methoxy-5-methyl-phenyl)-amide]	< 4.60	–	–
COc1ccc(NC(=O)c2sc3nc(C)cc(C)c3c2N)cc1 [Compound 163, 3-Amino-4,6-dimethyl-thieno[2,3-b]pyridine-2-carboxylic acid (4-methoxy-phenyl)-amide]	–	–	pEC50 (Vero, 48 h): < 4.60
COCc1cc(C)nc2sc(C(=O)Nc3ccc(C(C)=O)cc3)c(N)c12 [Compound 141, 3-Amino-4-methoxymethyl-6-methyl-thieno[2,3-b]pyridine-2-carboxylic acid (4-acetyl-phenyl)-amide]	< 4.60	–	–
